Read-outs that look alike come from different tables or passages of the source. Values belong to the compound of their own block, whether it stands above or below them.
Assays:
CSF1R (FMS) = CSF1R (FMS) (Homo sapiens, UniProt P07333); assay: CSF1R inhibition assay (Z'-LYTE); type: biochemical; conditions: read-out: % inhibition of CSF1R
Procedure: Compounds were assayed as inhibitors of […] in a manner substantially similar to the method described by Invitrogen Corp (Invitrogen Corporation, 1600 Faraday Avenue, Carlsbad, Calif., CA) using the […] biochemical assay procedure or similar biochemical assay. The 2×CSF1R (FMS)/[…] Peptide Mixture was prepared in 50 mM HEPES pH 7.5, 0.01% BRIJ-35, 10 mM MgCl2, 1 mM EGTA. The final […] Kinase Reaction consisted of 0.2-67.3 ng CSF1R (FMS) and 2 μM […] Peptide in 50 mM HEPES pH 7.5, 0.01% BRIJ-35, 10 mM MgCl2, 1 mM EGTA. After the 1 hour Kinase Reaction incubation, 5 μL of a 1:128 dilution of Development Reagent B was added.

c-KIT [1] = target: T1, c-KIT (Homo sapiens, UniProt P10721); assay: cKIT inhibition assay (electrophoretic mobility shift); type: biochemical; parameters: purchased Millipore 14-559
Procedure: The reaction was started by adding the ATP and incubating for 1 hour at room temperature. […] Phosphorylated and unphosphorylated substrate was separated by charge using electrophoretic mobility shift.

CSF1R = CSF1R (Homo sapiens, UniProt P07333); assay: CSF1R mass spectral analysis of tryptic digest; type: binding; conditions: 3 hrs at 10× excess, tryptic digest MALDI
Procedure: (§1) Iodoacetamide was used as the alkylating agent after compound incubation. For tryptic digests, a 2 μl aliquot (0.09 μg/μl) was diluted with 10 μl of 0.1% TFA prior to micro C18 Zip Tipping directly onto the MALDI target using alpha cyano-4-hydroxy cinnamic acid as the matrix (5 mg/ml in 0.1% TFA:Acetonitrile 50:50).
For tryptic digests, the instrument was set in Reflectron mode with a pulsed extraction setting of 1800. Calibration was done using the Laser Biolabs Pep Mix standard (1046.54, 1296.69, 1672.92, 2093.09, 2465.20). For CID/PSD analysis the peptide was selected using cursors to set ion gate timing and fragmentation occurred at a laser power about 20% higher and He was used as the collision gas for CID. Calibration for fragments was done using the P14R fragmentation calibration for the Curved field Reflectron. Database searching of the tryptic digest of CSF identified it correctly. […] PSD analysis of this peptide signal (1160.50) gave enough fragments to allow for a database MS/MS ion search which verified the sequence of this peptide.

c-KIT [2] = target: T1, c-KIT; assay: c-KIT mass spectral analysis of tryptic digest; type: binding; conditions: 3 hours at 10× excess, tryptic digest MALDI-TOF
Procedure: (§2) Iodoacetamide was used as the alkylating agent after compound incubation. For tryptic digests a 5 μl aliquot (14 pmols) was diluted with 10 ul of 0.1% TFA prior to micro C18 Zip Tipping directly onto the MALDI target using alpha cyano-4-hydroxy cinnamic acid as the matrix (5 mg/ml in 0.1% TFA:acetonitrile 50:50).
The tryptic digest was analyzed by mass spectrometer (MALDI-TOF).
as §1, with “incubation. […]” for “incubation.”, “digests” for “digests,”, “(3.3 pmols)” for “(0.09 μg/μl)”
For tryptic digests the instrument was set in Reflectron mode with a pulsed extraction setting of 2200. […] Calibration for fragments was done using the P14R fragmentation calibration for the Curved field Reflectron.

Flt3 [3] = target: T2, Flt3 (Homo sapiens, UniProt P36888); assay: Flt3 mass spectral analysis of tryptic digest; type: binding; conditions: 3 hrs at 100× excess, tryptic digest MALDI
T2 sequence (P36888 27-993): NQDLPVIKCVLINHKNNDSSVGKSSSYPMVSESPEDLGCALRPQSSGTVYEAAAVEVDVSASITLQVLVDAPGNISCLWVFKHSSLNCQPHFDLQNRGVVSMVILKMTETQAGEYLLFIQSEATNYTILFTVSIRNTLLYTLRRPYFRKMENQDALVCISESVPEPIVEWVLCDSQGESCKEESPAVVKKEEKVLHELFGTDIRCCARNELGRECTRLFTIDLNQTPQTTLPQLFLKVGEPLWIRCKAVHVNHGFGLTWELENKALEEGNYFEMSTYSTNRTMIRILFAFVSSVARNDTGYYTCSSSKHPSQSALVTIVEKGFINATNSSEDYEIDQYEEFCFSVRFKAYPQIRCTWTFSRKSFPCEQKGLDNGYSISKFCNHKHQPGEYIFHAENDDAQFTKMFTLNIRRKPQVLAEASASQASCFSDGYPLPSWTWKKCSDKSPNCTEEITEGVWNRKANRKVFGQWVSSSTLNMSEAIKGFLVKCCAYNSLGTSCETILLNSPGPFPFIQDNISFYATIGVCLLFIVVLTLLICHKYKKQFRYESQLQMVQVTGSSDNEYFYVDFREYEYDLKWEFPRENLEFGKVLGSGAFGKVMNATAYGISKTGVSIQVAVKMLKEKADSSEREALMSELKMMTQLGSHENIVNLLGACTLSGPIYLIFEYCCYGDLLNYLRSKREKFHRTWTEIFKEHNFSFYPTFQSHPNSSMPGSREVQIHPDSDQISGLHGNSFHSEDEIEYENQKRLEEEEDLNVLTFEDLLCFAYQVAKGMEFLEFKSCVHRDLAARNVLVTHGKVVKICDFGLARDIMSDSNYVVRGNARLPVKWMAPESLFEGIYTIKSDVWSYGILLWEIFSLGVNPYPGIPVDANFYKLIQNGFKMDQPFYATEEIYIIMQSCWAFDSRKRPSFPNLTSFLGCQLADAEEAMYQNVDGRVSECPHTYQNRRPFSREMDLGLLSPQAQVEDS
Procedure: as §2, with “Flt3 was incubated with Compound 4 for 3 hrs at 100× excess prior to tryptic digestion. Iodoacetamide” for “Iodoacetamide”, “ul” for “μl”, “(7” for “(14”, “TFA:Acetonitrile” for “TFA:acetonitrile”
The mass spec instrument was set in Reflectron mode with a pulsed extraction setting of 1800. Calibration was done using the Laser Biolabs Pep Mix standard (1046.54, 1296.69, 1672.92, 2093.09, 2465.20). For CID/PSD analysis the peptide was selected using cursors to set ion gate timing and fragmentation occurred at a laser power about 20% higher and He was used as the collision gas for CID. Calibration for fragments was done using the P14R fragmentation calibration for the Curved field Reflectron.

Flt3 [4] = target: T2, Flt3; assay: FLT3 biochemical assay (continuous-read kinase assay); parameters: purchased Invitrogen PV3182; conditions: 500 μM ATP; read-out: IC50 for inhibition of FLT3 phosphorylation
HCV RNA replicon = assay: Replicon assay (luciferase, ET Huh7 cell line); conditions: Hepatitis C virus, Huh-7, 72 h, read-out: EC50 replicon assay
Procedure: The compounds were assayed to evaluate the antiviral activity and cytotoxicity of compounds using replicon-derived luciferase activity. This assay used the cell line ET (luc-ubi-neo/ET), which is a human Huh7 hepatoma cell line that contains an HCV RNA replicon with a stable luciferase (Luc) reporter and three cell culture-adaptive mutations.
The ET cell line was grown in Dulbecco's modified essential media (DMEM), 10% fetal bovine serum (FBS), 1% penicillin-streptomycin (pen-strep), 1% glutamine, 1% non essential amino acid, 400 μg/mL G418 in a 5% CO2 incubator at 37° C. All cell culture reagents were obtained from Invitrogen(Carlsbad). Cells were trypsinized (1% trypsin:EDTA) and plated out at 5×10^3 cells/well in white 96-well assay plates (Costar) dedicated to cell number (cytotoxicity) or antiviral activity assessments. Compounds were added at six 3-fold concentrations each and the assay was run in DMEM, 5% FBS, 1% pen-strep, 1% glutamine, 1% non essential amino acid. Human interferon alpha-2b (PBL Biolabs, New Brunswick, N.J.) was included in each run as a positive control compound. Cells were processed 72 hr post compound addition when the cells are still subconfluent. Antiviral activity was measured by analyzing replicon-derived luciferase activity using the Steady-Glo Luciferase Assay System (Promega, Madison, Wis.) according to manufacturer's instruction. The number of cells in each well was determined by Cell Titer Blue Assay (Promega).

cKIT in GIST882 cells = target: T3, cKIT in GIST882 cells (Homo sapiens, UniProt P10721, K642E); assay: GIST882 cellular assay with washout (western blot); type: cell-based; conditions: for cKIT autophosphorylation / downstream signaling of ERK: 1 micromolar
T3 construct: endogenous in cells; host or cells: GIST882 cells
Procedure: GIST882 cells were seeded in a 6 well plate at a density of 8×10^5 cells/well in complete media. The next day cells were treated with 1 uM compound diluted in complete media for 90 minutes. After 90 minutes, the media was removed and cells were washed with compound-free media. Cells were washed every 2 hours and resuspended in fresh compound-free media.

Btk = target: T4, Btk (Homo sapiens, UniProt Q06187); assay: Omnia assay for potency against Btk; conditions: biochemical assay; read-out: IC50 Btk kinase
T4 construct: purchased Invitrogen
Procedure: The protocol below describes continuous-read kinase assays to measure inherent potency of compounds against active forms of Btk enzyme. The mechanics of the assay platform are best described by the vendor (Invitrogen, Carlsbad, Calif.) on the world wide web at invitrogen.com/site/us/en/home/Products-and-Services/Applications/Drug-Discovery/Target-and-Lead-Identification-and-Validation/KinaseBiology/KB-Misc/Biochemical-Assays/Omnia-Kinase-Assays.html. Briefly, 10× stocks of 5 nM Btk from Invitrogen, 1.13×40 μM ATP (AS001A) and 10 μM (ATP KMapp ˜[…]) Tyr-Sox conjugated peptide substrates (KCZ 1001) were prepared in 1× kinase reaction buffer consisting of 20 mM Tris, pH 7.5, 5 mM MgCl2, 1 mM EGTA, 5 mM β-glycerophosphate, 5% glycerol (10× stock, KBOO2A) and 0.2 mM DTT (DS001A).

[5] = target: HCV NS3/4A 1b protease WT (Hepatitis C virus genotype 1b, UniProt P26662); assay: HCV Protease FRET Assay for wild type NS3/4A 1b enzyme (IC50); type: biochemical; conditions: 30 min pre-incubation
[6] = target: HCV NS3/4A 1b protease D168A (Hepatitis C virus genotype 1b, UniProt P26662, D1194A); assay: HCV Protease FRET Assay for mutated NS3/4A 1b enzyme (IC50); type: biochemical; conditions: 30 min pre-incubation
From the text: 279, No. 17, pp 17508-17514.

HCV NS3/4A 1b protease = HCV NS3/4A 1b protease (Hepatitis C virus genotype 1b, UniProt P26662); assay: biochemical
Procedure: An HCV Protease FRET Assay for HCV NS3/4A 1b Enzyme (IC50_APP) was used. The following protocol was used to generate “apparent” IC50 (IC50_APP) values. […] Protease reactions were immediately started after enzyme addition with the addition of 45 μL of the FRET substrate and monitored for 60-90 minutes at λex485/λem520 in a Synergy4 plate reader from BioTek (Winooski, Vt.).

[7] = 1 uM for 90 minutes, then washed free of compound

T1 sequence (P10721 26-976): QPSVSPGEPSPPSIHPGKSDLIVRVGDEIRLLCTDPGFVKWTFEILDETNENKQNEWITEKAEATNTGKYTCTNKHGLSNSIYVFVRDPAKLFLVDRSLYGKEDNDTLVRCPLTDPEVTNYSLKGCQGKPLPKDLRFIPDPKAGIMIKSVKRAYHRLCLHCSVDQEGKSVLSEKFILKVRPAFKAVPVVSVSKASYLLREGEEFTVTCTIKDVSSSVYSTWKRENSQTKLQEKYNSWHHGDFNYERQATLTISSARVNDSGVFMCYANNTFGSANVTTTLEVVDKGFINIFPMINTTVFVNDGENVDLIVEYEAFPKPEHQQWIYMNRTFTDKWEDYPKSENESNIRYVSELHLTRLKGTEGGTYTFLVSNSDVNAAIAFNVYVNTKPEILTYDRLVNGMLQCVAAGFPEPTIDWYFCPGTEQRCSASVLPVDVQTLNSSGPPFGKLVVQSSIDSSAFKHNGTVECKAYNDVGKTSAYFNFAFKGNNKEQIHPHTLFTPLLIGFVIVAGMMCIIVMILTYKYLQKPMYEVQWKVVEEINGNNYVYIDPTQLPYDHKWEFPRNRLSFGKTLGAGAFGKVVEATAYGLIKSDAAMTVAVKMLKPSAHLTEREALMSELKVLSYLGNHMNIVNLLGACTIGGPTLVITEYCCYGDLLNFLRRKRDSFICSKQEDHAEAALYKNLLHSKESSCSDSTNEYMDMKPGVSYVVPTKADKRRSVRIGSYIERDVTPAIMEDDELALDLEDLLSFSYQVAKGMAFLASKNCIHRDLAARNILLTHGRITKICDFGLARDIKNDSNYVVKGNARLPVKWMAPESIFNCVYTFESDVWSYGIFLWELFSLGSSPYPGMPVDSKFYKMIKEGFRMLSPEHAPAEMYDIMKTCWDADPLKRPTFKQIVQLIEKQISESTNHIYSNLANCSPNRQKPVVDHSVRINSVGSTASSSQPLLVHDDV
T3 sequence (P10721 26-976 K642E): as the sequence (P10721 26-976) above, with K617E counted along it
Sequence of HCV NS3/4A 1b protease D168A (P26662 1027-1208 D1194A): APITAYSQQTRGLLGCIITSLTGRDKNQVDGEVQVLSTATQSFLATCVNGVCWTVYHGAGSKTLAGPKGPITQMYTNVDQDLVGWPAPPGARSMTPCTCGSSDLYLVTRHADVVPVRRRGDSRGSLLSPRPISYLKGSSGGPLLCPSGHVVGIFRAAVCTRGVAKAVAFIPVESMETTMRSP
Sequence of HCV NS3/4A 1b protease D168A (P26662 1658-1711 partner limits assumed): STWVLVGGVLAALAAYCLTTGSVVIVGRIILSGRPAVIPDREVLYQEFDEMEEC
Sequence of HCV NS3/4A 1b protease WT (P26662 1658-1711): as the sequence (P26662 1658-1711 partner limits assumed) above
Sequence of HCV NS3/4A 1b protease WT (P26662 1027-1208): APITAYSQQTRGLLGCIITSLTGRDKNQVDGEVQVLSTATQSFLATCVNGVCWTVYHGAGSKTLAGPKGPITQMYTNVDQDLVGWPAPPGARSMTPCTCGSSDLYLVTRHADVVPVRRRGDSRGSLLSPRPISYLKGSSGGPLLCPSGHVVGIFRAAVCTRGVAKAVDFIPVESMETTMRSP
Sequence of CSF1R (FMS) (P07333 20-972): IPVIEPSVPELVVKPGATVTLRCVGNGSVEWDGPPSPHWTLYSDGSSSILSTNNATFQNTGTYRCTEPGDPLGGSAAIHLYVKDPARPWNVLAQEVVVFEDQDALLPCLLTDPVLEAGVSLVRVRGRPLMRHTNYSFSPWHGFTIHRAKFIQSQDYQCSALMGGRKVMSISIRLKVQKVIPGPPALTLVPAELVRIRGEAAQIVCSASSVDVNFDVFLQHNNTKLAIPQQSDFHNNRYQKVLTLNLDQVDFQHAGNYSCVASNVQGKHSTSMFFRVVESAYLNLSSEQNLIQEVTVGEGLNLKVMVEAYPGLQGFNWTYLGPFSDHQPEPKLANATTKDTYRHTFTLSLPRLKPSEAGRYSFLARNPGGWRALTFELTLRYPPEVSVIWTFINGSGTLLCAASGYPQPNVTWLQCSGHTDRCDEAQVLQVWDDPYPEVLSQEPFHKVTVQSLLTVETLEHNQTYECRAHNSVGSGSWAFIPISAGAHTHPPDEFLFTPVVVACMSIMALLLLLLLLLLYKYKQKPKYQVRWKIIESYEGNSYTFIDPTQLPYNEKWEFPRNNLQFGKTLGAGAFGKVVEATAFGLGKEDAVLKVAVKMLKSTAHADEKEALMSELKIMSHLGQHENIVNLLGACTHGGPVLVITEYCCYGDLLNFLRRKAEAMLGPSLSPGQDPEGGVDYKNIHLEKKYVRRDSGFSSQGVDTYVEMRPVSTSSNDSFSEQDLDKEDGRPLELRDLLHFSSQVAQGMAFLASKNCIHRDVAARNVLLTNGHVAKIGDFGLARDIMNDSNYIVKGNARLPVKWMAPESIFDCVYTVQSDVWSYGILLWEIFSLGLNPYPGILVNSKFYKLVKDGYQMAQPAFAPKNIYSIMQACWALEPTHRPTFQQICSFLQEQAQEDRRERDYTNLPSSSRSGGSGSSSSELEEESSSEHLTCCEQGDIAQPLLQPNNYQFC
T4 sequence (Q06187 whole entry): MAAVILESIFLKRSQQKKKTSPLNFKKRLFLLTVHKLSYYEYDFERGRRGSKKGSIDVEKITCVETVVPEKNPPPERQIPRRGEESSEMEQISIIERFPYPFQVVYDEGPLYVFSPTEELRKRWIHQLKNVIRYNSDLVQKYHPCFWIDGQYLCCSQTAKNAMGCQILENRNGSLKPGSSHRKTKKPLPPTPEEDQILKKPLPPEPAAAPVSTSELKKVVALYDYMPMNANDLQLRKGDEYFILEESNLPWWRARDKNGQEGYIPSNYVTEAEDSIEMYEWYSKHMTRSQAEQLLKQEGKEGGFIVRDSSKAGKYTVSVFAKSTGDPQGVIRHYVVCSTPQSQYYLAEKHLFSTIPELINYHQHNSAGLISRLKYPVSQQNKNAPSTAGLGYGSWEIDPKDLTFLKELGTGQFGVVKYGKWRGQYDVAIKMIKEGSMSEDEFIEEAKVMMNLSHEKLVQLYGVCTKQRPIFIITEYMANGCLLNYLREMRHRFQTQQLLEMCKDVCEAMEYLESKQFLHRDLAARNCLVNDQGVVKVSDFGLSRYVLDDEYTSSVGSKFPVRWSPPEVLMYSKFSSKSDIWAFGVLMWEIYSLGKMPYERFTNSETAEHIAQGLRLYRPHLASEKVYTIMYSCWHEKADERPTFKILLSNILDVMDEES
Sequence of CSF1R (P07333 20-972): as the sequence (P07333 20-972) above
Sequence of HCV NS3/4A 1b protease (P26662 1027-1208): as the sequence (P26662 1027-1208) above
Sequence of HCV NS3/4A 1b protease (P26662 1658-1711): as the sequence (P26662 1658-1711 partner limits assumed) above

inhibition at 10 µM (CSF1R (FMS); 10 μM compound): 72%
inhibition at 1 µM (c-KIT [1]; read-out: % Inhibition of c-KIT): 82%
Structure (SMILES): C=CC(=O)Nc1ccc(C(=O)Nc2ccc(C)c(Nc3nccc(-c4cccnc4)n3)c2)cc1 [Compound 1, 4-acrylamido-N-(4-methyl-3-(4-(pyridin-3-yl)pyrimidin-2-ylamino)phenyl)benzamide]

Structure (SMILES): C=CC(=O)Nc1ccc(C(=O)Nc2ccc(C)c(Nc3nccc(-c4cccnc4)n3)c2)cc1C(F)(F)F [Compound 2, 4-Acrylamido-N-(4-methyl-3-(4-pyridin-3-yl)pyrimidin-2-ylamino)phenyl-3-(trifluoromethyl)benzamide]
inhibition at 10 µM (CSF1R (FMS)): 89%
covalent modification of CSF1R (modified peptide) (CSF1R): NCIHR

covalent modification of c-KIT (site or peptide) (c-KIT [2]): Cys788 (major) and: Cys808 (minor)
Structure (SMILES): Cc1ccc(C(=O)Nc2ccc(NC(=O)CCl)c(C(F)(F)F)c2)cc1Nc1nccc(-c2cccnc2)n1 [Compound 3]

Structure (SMILES): C=CC(=O)Nc1ccc(Sc2nc(Nc3cc(C)n[nH]3)cc(N3CCN(C)CC3)n2)cc1 [Compound 4, N-(4-(4-(3-Methyl-1H-pyrazol-5-ylamino)-6-(4-methylpiperiazin-1-yl)pyrimidin-2ylthio)phenyl)acrylamide]
covalent modification of Flt3 (modified peptide) (Flt3 [3]): ICDFGLAR with Compound 4 attached
IC50 (Flt3 [4]): 2.2 nM

Structure (SMILES): C=CC(=O)NC[C@H](NC(=O)OC(C)(C)C)C(=O)N1C[C@H](Oc2cc(-c3ccccc3)nc3cc(OC)ccc23)C[C@H]1C(=O)N[C@]1(C(=O)NS(=O)(=O)c2ccccc2)C[C@H]1C=C [Compound 6, N-[(1,1-dimethylethoxy)carbonyl]-3-[(2-propenoyl)amino]-L-alanyl-(4R)-4-[(7-methoxy-2-phenyl-4-quinolinyl)oxy]-L-prolyl-1-amino-2-ethenyl-N-(phenylsulfonyl)-(1R,2S)-cyclopropanecarboxamide]
EC50 (HCV RNA replicon): 174 nM

covalent modification of c-KIT (site or peptide) (c-KIT [2]): NCIHR
persistence of inhibition after washout (cKIT in GIST882 cells; [7]): at least 8 hours
cKIT autophosphorylation (cKIT in GIST882 cells): inhibited
downstream signaling of ERK (cKIT in GIST882 cells): inhibited
IC50 (c-KIT [1]; inhibition of cKIT phosphorylation): 31 nM
Structure (SMILES): C=CC(=O)Nc1ccc(NC(=O)Nc2ccc(Oc3ccnc(C(=O)NC)c3)cc2)cc1C(F)(F)F [Compound 7, 4-(4-(3-(4-Acrylamido-3-(trifluoromethyl)phenyl)ureido)phenoxy)-N-methylpicolinamide]

IC50 (Btk): 8600 nM
Structure (SMILES): CCC(=O)Nc1cccc(Nc2cc(Nc3ccc(Oc4ccccc4)cc3)ncn2)c1 [Compound 9]

Structure (SMILES): C=C[C@@H]1C[C@]1(NC(=O)[C@@H]1C[C@@H](Oc2cc(-c3ccccc3)nc3cc(OC)ccc23)CN1C(=O)CNC(=O)CC)C(=O)NS(=O)(=O)c1ccccc1 [Compound 11, reference compound]
IC50 [5]: 165 nM
IC50 [6]: > 3000 nM
EC50 (HCV RNA replicon): > 3000 nM

Structure (SMILES): C=CC(=O)NCC(=O)N1C[C@H](Oc2cc(-c3ccccc3)nc3cc(OC)ccc23)C[C@H]1C(=O)N[C@]1(C(=O)NS(=O)(=O)c2ccccc2)C[C@H]1C=C [Compound 12, (2S,4R)-1-(2-acrylamidoacetyl)-4-(7-methoxy-2-phenylquinolin-4-yloxy)-N-((1R,2S)-1-(phenylsulfonylcarbamoyl)-2-vinylcyclopropyl)pyrrolidine-2-carboxamide]
IC50 [5]: 0.3 nM
IC50 [6]: 17 nM
EC50 (HCV RNA replicon): 204 nM

Structure (SMILES): C=CC1C[C@]1(NC(=O)[C@@H]1C[C@@H](Oc2cc(-c3ccccc3)nc3cc(OC)ccc23)CN1C(=O)C(NC(=O)OC(C)(C)C)C(C)C)C(=O)NS(=O)(=O)c1ccccc1 (stereo partly drawn) [Compound V-1, reference compound]
IC50 (HCV NS3/4A 1b protease): 0.4 nM

inhibitory activity of ckit and downstream signaling after washout (cKIT in GIST882 cells; [7]): overcome
cKIT autophosphorylation (cKIT in GIST882 cells): inhibited
downstream signaling of ERK (cKIT in GIST882 cells): inhibited
Structure (SMILES): CNC(=O)c1cc(Oc2ccc(NC(=O)Nc3ccc(Cl)c(C(F)(F)F)c3)cc2)ccn1 [Sorafenib, sorafenib, reference compound]

From patent US20100185419A1, “ALGORITHM FOR DESIGNING IRREVERSIBLE INHIBITORS” (Avila Therapeutics, Inc., priority 2008, published 2010)
